pIC50: −log10 of the molar value.
How the values were obtained:
[1] = biological target: T1, Solute carrier family 2, facilitated glucose transporter member 9 (Homo sapiens) (UniProt Q9NRM0); assay: Inhibition of GLUT9 (unknown origin) expressed in HEK293T cells assessed as inhibition of uric acid-induced current at 10 uM by whole cell patch clamp technique; format: cell-based
T1 sequence (whole entry): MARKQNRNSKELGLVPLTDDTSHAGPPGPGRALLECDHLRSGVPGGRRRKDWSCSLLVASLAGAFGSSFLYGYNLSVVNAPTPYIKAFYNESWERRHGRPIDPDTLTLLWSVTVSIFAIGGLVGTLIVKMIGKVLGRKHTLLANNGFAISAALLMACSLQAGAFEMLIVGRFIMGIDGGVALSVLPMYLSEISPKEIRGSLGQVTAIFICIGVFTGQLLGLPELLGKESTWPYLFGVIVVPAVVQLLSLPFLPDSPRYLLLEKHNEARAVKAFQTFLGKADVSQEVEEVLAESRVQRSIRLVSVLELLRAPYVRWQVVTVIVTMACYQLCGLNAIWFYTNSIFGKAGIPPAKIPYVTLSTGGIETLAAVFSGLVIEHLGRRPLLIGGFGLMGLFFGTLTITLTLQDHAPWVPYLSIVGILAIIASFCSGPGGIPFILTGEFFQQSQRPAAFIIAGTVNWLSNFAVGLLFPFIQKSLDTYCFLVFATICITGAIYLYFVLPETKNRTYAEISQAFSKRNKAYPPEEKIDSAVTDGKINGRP

[2] = Renal toxicity in xanthine and potassium oxonate-induced acute hyperuricemia Kunming mouse model assessed as blood urea nitrogen level at 10 mg/kg, po measured after 3 hrs; format: organism-based; conditions: in vivo
[3] = biological target: T2, Solute carrier family 2, facilitated glucose transporter member 9 (Homo sapiens, UniProt Q9NRM0); assay: Inhibition of GLUT9 (unknown origin) expressed in HEK293T cells assessed as inhibition of uric acid-induced current by whole cell patch clamp technique; format: cell-based
T2 sequence (Q9NRM0 whole entry): T1 sequence (whole entry)

[4] = Inhibition of URAT1 R487K mutant (unknown origin)-mediated 14C-uric acid uptake expressed in HEK293 cells using 14C-uric acid as substrate preincubated for 30 mins followed by substrate addition and measured after 15 mins by liquid scintillation counting analysis; format: cell-based; conditions: Homo sapiens
[5] = Inhibition of URAT1 S35N mutant (unknown origin)-mediated 14C-uric acid uptake expressed in HEK293 cells using 14C-uric acid as substrate preincubated for 30 mins followed by substrate addition and measured after 15 mins by liquid scintillation counting analysis; format: cell-based; conditions: Homo sapiens
[6] = Cmax in Sprague-Dawley rat at 5 mg/kg, iv measured upto 36 hrs by LC-MS/MS analysis; format: ADME, organism-based; design: time < 36 hrs, dose 5 mg/kg, route iv; conditions: in vivo
[7] = Cytotoxicity against human HK-2 cells assessed as reduction in cell viability incubated for 24 hrs by MTT assay; format: toxicity, cell-based
[8] = biological target: T3, Solute carrier family 22 member 12 (Homo sapiens, UniProt Q96S37); assay: Inhibition of URAT1 (unknown origin)-mediated 14C-uric acid uptake expressed in HEK293 cells using 14C-uric acid as substrate preincubated for 30 mins followed by substrate addition and measured after 15 mins by liquid scintillation counting analysis; format: cell-based
T3 sequence (Q96S37 whole entry): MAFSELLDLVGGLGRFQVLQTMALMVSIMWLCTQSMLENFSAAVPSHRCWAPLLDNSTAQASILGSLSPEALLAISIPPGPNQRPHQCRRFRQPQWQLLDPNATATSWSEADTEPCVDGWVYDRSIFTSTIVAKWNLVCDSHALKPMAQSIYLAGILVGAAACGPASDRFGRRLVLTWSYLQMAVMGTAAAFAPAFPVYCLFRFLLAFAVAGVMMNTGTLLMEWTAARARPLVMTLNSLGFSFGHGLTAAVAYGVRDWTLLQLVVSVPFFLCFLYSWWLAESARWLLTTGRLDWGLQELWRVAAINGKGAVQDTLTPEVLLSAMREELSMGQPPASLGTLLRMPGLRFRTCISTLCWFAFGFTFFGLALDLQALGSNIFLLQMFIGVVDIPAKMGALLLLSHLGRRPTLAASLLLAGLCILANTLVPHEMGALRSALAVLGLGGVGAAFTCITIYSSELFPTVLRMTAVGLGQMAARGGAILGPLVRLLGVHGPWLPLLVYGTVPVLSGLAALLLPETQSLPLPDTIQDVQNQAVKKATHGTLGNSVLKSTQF

[9] = biological target: T4, Solute carrier family 22 member 6 (Homo sapiens, UniProt Q4U2R8); assay: Inhibition of OAT1 (unknown origin) expressed in HEK293 cells assessed as inhibition of 6-CFL uptake preincubated for 30 mins followed by incubation with 6-CFL and measured after 15 mins by fluorescence based analysis; format: toxicity, cell-based
T4 sequence (Q4U2R8 whole entry): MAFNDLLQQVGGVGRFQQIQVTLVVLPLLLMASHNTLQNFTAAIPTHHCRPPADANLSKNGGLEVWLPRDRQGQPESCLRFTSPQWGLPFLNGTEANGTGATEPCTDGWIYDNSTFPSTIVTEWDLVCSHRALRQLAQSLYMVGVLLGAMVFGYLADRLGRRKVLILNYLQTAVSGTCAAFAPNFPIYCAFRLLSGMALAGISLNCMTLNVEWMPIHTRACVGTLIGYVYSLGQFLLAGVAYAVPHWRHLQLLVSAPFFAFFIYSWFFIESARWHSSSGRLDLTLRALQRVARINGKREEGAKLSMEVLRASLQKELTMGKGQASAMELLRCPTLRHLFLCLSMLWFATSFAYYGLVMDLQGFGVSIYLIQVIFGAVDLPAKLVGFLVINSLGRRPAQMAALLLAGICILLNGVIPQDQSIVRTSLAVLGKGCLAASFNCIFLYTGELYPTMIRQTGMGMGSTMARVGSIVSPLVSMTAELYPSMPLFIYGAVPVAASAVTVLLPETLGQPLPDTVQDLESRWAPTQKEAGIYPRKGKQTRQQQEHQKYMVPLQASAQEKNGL

Mus musculus [10] = assay: Anti-hyperuricemic activity against xanthine and potassium oxonate-induced acute hyperuricemia Kunming mouse model assessed as increase in urine uric acid concentration at 10 mg/kg, po measured for 24 hrs; format: functional
[11] = Tmax in Sprague-Dawley rat at 5 mg/kg, iv measured upto 36 hrs by LC-MS/MS analysis; format: ADME, organism-based; conditions: in vivo
[12] = Inhibition of URAT1 I481M mutant (unknown origin)-mediated 14C-uric acid uptake expressed in HEK293 cells using 14C-uric acid as substrate preincubated for 30 mins followed by substrate addition and measured after 15 mins by liquid scintillation counting analysis; format: cell-based; conditions: Homo sapiens
Mus musculus [13] = assay: Anti-hyperuricemic activity against xanthine and potassium oxonate-induced acute hyperuricemia Kunming mouse model assessed as serum uric acid concentration at 10 mg/kg, po measured after 3 hrs (reference value: 846.22 uM); format: functional
[14] = Inhibition of URAT1 F365Y mutant (unknown origin)-mediated 14C-uric acid uptake expressed in HEK293 cells using 14C-uric acid as substrate preincubated for 30 mins followed by substrate addition and measured after 15 mins by liquid scintillation counting analysis; format: cell-based; conditions: Homo sapiens
[15] = AUC (0 to infinity) in Sprague-Dawley rat at 5 mg/kg, iv by LC-MS/MS analysis; format: ADME, organism-based; design: time infinity, dose 5 mg/kg, route iv; conditions: in vivo
[16] = Inhibition of URAT1 R477K mutant (unknown origin)-mediated 14C-uric acid uptake expressed in HEK293 cells using 14C-uric acid as substrate preincubated for 30 mins followed by substrate addition and measured after 15 mins by liquid scintillation counting analysis; format: cell-based; conditions: Homo sapiens

## N#Cc1ccc(Nc2cnccc2SCc2ccccc2C(=O)[O-])c2ccccc12.[Na+]
[1]
  inhibition: 51%
[2]
  Activity: Non-Toxic
[3]
  pIC50: 5.03
[4]
  pIC50: 5.72
[5]
  pIC50: 5.50
[6]
  Cmax: 11100 ng/mL
[7]
  IC50 at 24 h: 208000 nM
[8]
  pIC50: 6.62
[9]
  pIC50: 4.49
Mus musculus [10]
  Activity: 2444.24 µM
[11]
  Tmax: 10.2 min
[12]
  pIC50: 6.51
Mus musculus [13]
  Activity: 645.8 µM
[14]
  pIC50: 5.80
[15]
  AUC(0-inf): 18500 ng·h/mL
[16]
  pIC50: 5.66

— ChEMBL document CHEMBL5154691, “Discovery of novel verinurad analogs as dual inhibitors of URAT1 and GLUT9 with improved Druggability for the treatment of hyperuricemia” (Eur J Med Chem, 2022)
